Source: the OPERA property sets (Mansouri et al. 2018)
Values after ≈ are worked out from the molar mass of the structure shown.

Details: 25 °C

SMILES | solubility [µM]
CC(Br)CCl (configuration not stated) | 14200 (≈ 2240 µg/mL)
Cc1c(C)c(C)c(C)c(C)c1C | 1.45 (≈ 0.235 µg/mL)
Fc1ccc(CCl)cc1 | 2860 (≈ 413 µg/mL)
Clc1cccc2ccccc12 | 107 (≈ 17.4 µg/mL)
Fc1cccc2ccccc12 | 353 (≈ 51.5 µg/mL)

Second part, the compound after the results:

solubility [µM] | SMILES
0.347 (≈ 0.066 µg/mL) | CCCCCCCCc1ccccc1
2610 (≈ 371 µg/mL) | CCCCCCCC(C)=O
11600 (≈ 1580 µg/mL) | Cc1ccc(C)c(O)c1C
2.54 (≈ 0.447 µg/mL) | CCCCCCCc1ccccc1
491 (≈ 76.8 µg/mL) | CCCCCCCCC(C)=O
133 (≈ 22.9 µg/mL) | CCCCCCCCC(=O)OC
212000 (≈ 35400 µg/mL) | CC(=O)OCCBr
